Laboratory results published in patent US7897637B2, “Methods of using flavonoids to enhance memory” (The Salk Institute for Biological Studies, priority 2006, dated 2011).
Like-named read-outs stand apart in the source and are kept apart here.

Columns and labels:
[1] = Trolox Equivalent Activity Concentration (ABTS decolorization assay); conditions: Trolox as reference
Description: To determine if the protection seen with the different fisetin derivatives correlated with their antioxidant properties, their Trolox Equivalent Activity Concentration (TEAC) values were determined. In this procedure, a compound is compared to Trolox, a water-soluble vitamin E analog, for its ability to reduce the radical cation of ABTS in aqueous solution. As reported previously, fisetin has a TEAC value of ˜3 (Table II). None of the derivatives had TEAC values in this range despite, in some cases, showing better protection against oxidative stress-induced death. Thus, there was no correlation with antioxidant activity as defined by TEAC value and protection in this system.
TEAC values for the flavonoids were determined according to (Re et al. Free Rad. Biol. Med., 26:1231-7, 1999) but modified for a plate reader. Briefly, 250 μl of 2,2′-azinobis(3-ethylbenzothiazoline 6-sulfonate)(ABTS) treated overnight with potassium persulfate and diluted to an OD of ˜0.7 at 734 nm was added to 2.5 μl of a flavonoid solution in ethanol. The change in absorbance due to the reduction of the ABTS radical cation was measured at 734 nm for 4 minutes. To calculate the TEAC, the gradient of the plot of the percentage inhibition of absorbance vs. concentration for the flavonoid in question is divided by the gradient of the plot for Trolox.

HT22 cells = assay: Protection of HT22 cells from oxidative glutamate toxicity (MTT assay); type: cell-based, mouse; conditions: for EC50 / Emax: Mus musculus, 5 mM glutamate, MTT assay; for EC50: HT-22, 24 h, read-out: EC50 (μM), protection from oxidative-stress induced death; for EC50 / Emax / effect of higher levels of BSO on protection: 24 hours; for Emax: HT-22, read-out: Maximal Efficacy, protection from oxidative-stress induced death; for effect of higher levels of BSO on protection: 5 mM glutamate + 1 mM BSO, MTT
Source text: Fisetin is effective at protecting nerve cells from oxidative stress-induced death (Ishige et al., Free Radic. Biol. Med., 30:433-446, 2001). This Example illustrates the structure-activity relationship between fisetin derivatives and neuroprotection in a model of oxidative glutamate toxicity using mouse HT22 cells. This pathway of programmed cell death is initiated by the addition of glutamate to the extracellular medium. Glutamate inhibits the uptake of cystine which is required for glutathione (GSH) biosynthesis, resulting in the depletion of GSH in neurons (for review see Tan et al., Curr. Top. Med. Chem., 1:497-506, 2001). Subsequently, this decrease in cellular GSH results in the production of reactive oxygen species (ROS) by mitochondria. The ROS accumulation then causes Ca^+2 influx from the extracellular medium which leads to cell death.
HT22 cells were untreated (Ct) or treated with 10 μM fisetin, 25 μM 3,3′-DHF, 25 μM 3,4′-DHF, 2.5 μM 3′,4′-DHF, 2.5 μM 3,3′,4′-THF 25 μM 3,7,3′-THF, 25 μM 3,7,4′-THF or 10 μM 7,3′,4′-THF in the presence of 5 mM glutamate±50 μM PD98059. Twenty four (24) hours later cell survival was measured by the MTT assay.
HT22 cells were untreated (Ct) or treated with 10 μM fisetin, 25 μM 3,3′-DHF. […] Protection by all of the other flavonoids was unaffected by BSO.
Cell viability was determined by a modified version of the 3-(4,5-dimethylthiazol-2-yl)-2,5-diphenyl tetrazolium bromide (MTT) assay based on the standard procedure (Hansen et al., J. Immunol. Meth., 119:203-10, 1989). Briefly, cells were seeded onto 96-well microtiter plates at a density of 5×10^3 cells per well. The next day, the medium was replaced with DMEM supplemented with 7.5% DFCS and the cells were treated with the different flavonoids alone or in the presence of 5 mM glutamate. Twenty four hours later, the medium in each well was aspirated and replaced with fresh medium containing 2.5 μg/ml MTT. After 4 hours of incubation at 37° C., cells were solubilized with 100 μl of a solution containing 50% dimethylformamide and 20% SDS (pH 4.7). The absorbance at 570 nm was measured on the following day with a microplate reader (Molecular Devices). Results obtained from the MTT assay correlated directly with the extent of cell death as confirmed visually. Controls employing wells without cells were used to determine the effects of the agents upon the assay chemistry.

PC12 cells [2] = assay: PC12 cell differentiation assay (neurite outgrowth); type: cell-based; conditions: for EC50 / Emax: Rattus norvegicus, PC-12, PC12 cells in N2 medium, 24 hours, neurites scored; for EC50: read-out: EC50 (μM), induction of PC12 cell differentiation; for Emax: read-out: Maximal Efficacy, induction of PC12 cell differentiation
Description: Four trihydroxyflavones (THF) and three dihydroxyflavones (DHF) which lack one or two, respectively, of the hydroxyl groups found in fisetin were tested for their ability to induce the differentiation of PC12 cells. Differentiation was assessed by scoring neurite outgrowth (Sagara et al., J. Neurochem., 90:1144-1155, 2004). […]
PC12 cells in N2 medium were treated with flavonoids for 24 hours at which time the cells were scored for the presence of neurites. PC12 cells produce neurites much more rapidly when treated in N2 medium than when treated in regular growth medium (Kimura et al., J. Cell Biol., 116:777-83, 1992). For each treatment, 100 cells in each of three separate fields were counted. Cells were scored positive if one or more neurites>1 cell body diameter in length were observed.

Nrf2 and HO-1 = Nrf2 and HO-1 induction in HT22 cells (immunoblotting); type: cell-based, mouse; conditions: for increasing the levels of Nrf2 and inducing HO-1 synthesis: HT22 cells, 10-25 μM, 4 hours (Nrf2), 24 hours (HO-1)
Description: Since the ability to activate the ARE could be important for some of the beneficial effects of flavonoids such as fisetin, it was determined which, if any, of the fisetin derivatives could activate the ARE and induce the synthesis of downstream proteins such as HO-1. HT22 cells were untreated (control) or treated with 10 μM fisetin, 25 μM 3,3′DHF, 25 μM 3,4′-DHF, 10 μM 3′,4′-DHF, 10 μM 3,3′,4′-THF, 25 μM 3,7,3′-THF, 25 μM 3,7,4′-THF or 10 μM 7,3′,4′-THF for 4 hours. Nuclei were prepared and equal amounts of protein were analyzed by SDS-PAGE and immunoblotting with anti-Nrf-2 antibodies.
ERK activation is implicated in the induction of Nrf2 by certain stimuli in some cell types. To determine if ERK activation plays a role in the induction of Nrf2 and HO-1 by fisetin and its derivatives, cells were pretreated with PD98059 prior to the addition of the flavonoids to the cells. HT22 cells then were untreated (control) or treated for 24 hours with 10 μM fisetin, 25 μM 3,3′-DHF, 25 μM 3,4′-DHF, 10 μM 3′,4′-DHF, 10 μM 3,3′,4′-THF, 25 μM 3,7,3′-THF, 25 μM 3,7,4′-THF or 10 μM 7,3′,4′-THF. Cell lysates were prepared and equal amounts of cellular protein were analyzed by SDS-PAGE and immunoblotting with anti-HO-1 antibodies. Immunoblotting with anti-actin was used as a loading control.
For immunoblotting of HO-1, untreated and flavonoid-treated HT22 cells from the same density cultures as used for the cell death assays were washed twice in cold phosphate-buffered saline (PBS) then scraped into lysis buffer containing 50 mM HEPES, pH 7.4, 150 mM NaCl, 50 mM NaF, 1.5 mM MgC2, 1 mM EGTA, 10% glycerol, 1% Triton X-100, 10 mM sodium pyrophosphate, 1 mM Na3VO4, 1 mM phenylmethylsulfonyl fluoride (PMSF), 15 μg/ml aprotinin, 1 μg/ml pepstatin, and 5 μg/ml leupeptin. Lysates were incubated at 4° C. for 30 minutes, and then cleared by centrifugation at 14,000 rpm for 10 minutes. For immunoblotting of Nr12, nuclear extracts were prepared as described (Schreiber et al., Nuc. Acids Res., 17:6419, 1989) from untreated and flavonoid-treated cells. […] Protein concentrations were determined using the BCA protein assay (Pierce). Equal amounts of protein were solubilized in 2.5×SDS sample buffer, separated on 10% SDS polyacrylamide gels and transferred to nitrocellulose. The primary antibodies used were: anti-Nrf2 (#SC13032; 1/1000) from Santa Cruz Biotechnology (Santa Cruz, Calif.) and anti-HO-1 (#SPA-896; 1/5000) from Stressgen (Victoria, BC Canada).

GSH = assay: Total cellular GSH levels in HT22 cells; type: cell-based, mouse; conditions: 8 hours
Description: The effects of fisetin derivatives on cellular GSH levels was then determined. HT22 cells were untreated (Ct) or treated with 10 μM fisetin, 25 μM 3,3′-DHF, 25 μM 3,4′-DHF, 2.5 μM 3′,4′-DHF, 2.5 μM 3,3′,4′-THF, 25 μM 3,7,3′-THF, 25 μM 3,7,4′-THF or 10 μM 7,3′,4′-THF alone or in the presence of 5 mM glutamate. After 8 hours cellular levels of total GSH were determined as described in Example 4. The GSH level of the control sample (31.5±10 nmoles/mg protein) was taken as 100%.
Total intracellular GSH/GSSG was determined using whole cell lysates from untreated, glutamate treated, flavonoid treated and glutamate plus flavonoid treated cells as described (Maher and Hanneken, Invest. Opthalmol. Vis. Sci., 46:749-57, 2005, herein incorporated by reference as to the method) and normalized to total cellular protein.

PC12 cells [3] = conditions: cited from earlier work; for EC50: PC12 cells, read-out: EC50 for differentiation; for EC50 / differentiation of the cells induced at best: Sagara et al. 2004
CREB = CREB phosphorylation in hippocampal slices (immunoblotting, densitometry); type: cell-based, rat; conditions: inhibitor alone (50 μM PD98059 or 10 μM U0126, 30 minutes)
Description: (§1) Western blots panels A and B) of hippocampal slices treated with (A) 1 μM fisetin or (B) pretreated for 30 minutes with either 50 μM PD98059 (PD) or 10 μM U0126 (U) before the addition of 1 μM fisetin for 5 minutes, which blots were probed with the indicated antibodies.
(§2) Hippocampal slices in artificial cerebral spinal fluid (ACSF) were treated with either 1 μM fisetin for 5-20 minutes or pretreated for 30 minutes with either 50 μM PD98059 (PD) or 10 μM U0126 (J) before the addition of 1 μM fisetin for 5 minutes. Equal amounts of protein were analyzed by SDS-PAGE and immunoblotting with antibodies to phospho-ERK and phospho-CRFB along with antibodies to the unphosphorylated forms of the proteins. The average phosphoprotein signal from the blots was quantified by densitometry and normalized to total protein was plotted±S.D.

ERK2 (p42) = ERK2 (p42) phosphorylation in hippocampal slices (immunoblotting, densitometry); type: cell-based, rat; conditions: inhibitor alone (50 μM PD98059 or 10 μM U0126, 30 minutes)
Description: as §1, §2

ERK1 (p44) = ERK1 (p44) phosphorylation in hippocampal slices (immunoblotting, densitometry); type: cell-based, rat; conditions: inhibitor alone (50 μM PD98059 or 10 μM U0126, 30 minutes)
Description: as §1, §2

Row | Compound | TEAC [1] | EC50 (HT22 cells; HT22 cells) [µM] | Emax (HT22 cells; HT22 cells) [%] | EC50 (PC12 cells [2]) [µM] | Emax (PC12 cells [2]) [%] | EC50 (PC12 cells [3]) [µM] | differentiation of the cells induced at best (PC12 cells [3]) [%] | also measured
1 | O=c1c(O)c(-c2cccc(O)c2)oc2ccccc12 [3,3′-DHF, 3,3′-dihydroxyflavone] | 1.01 ± 0.01 | 12 | > 80 | 10 | 40 to 50 |  |  | 
2 | O=c1c(O)c(-c2ccc(O)cc2)oc2ccccc12 [3,4′-DHF, 3,4′-dihydroxyflavone] | 0.62 ± 0.06 | 10 | > 70 | 20 | 50 to 60 |  |  | effect of higher levels of BSO on protection (HT22 cells): reduced protection; ability to induce differentiation (PC12 cells [2]; PC12 cells): slightly less efficacious and potent than fisetin; increasing the levels of Nrf2 and inducing HO-1 synthesis (Nrf2 and HO-1): fairly effective
3 | O=c1c(O)c(-c2cccc(O)c2)oc2cc(O)ccc12 [3,7,3′-THF, 3,3′,7-trihydroxyflavone] | 1.55 ± 0.34 | 17 | > 90 | 15 | 40 to 50 |  |  | 
4 | O=c1c(O)c(-c2ccc(O)cc2)oc2cc(O)ccc12 [3,7,4′-THF, 3,4′,7-trihydroxyflavone] | 1.01 ± 0.10 | 12.5 | > 90 | 10 | 70 to 80 |  |  | increasing the levels of Nrf2 and inducing HO-1 synthesis (Nrf2 and HO-1): fairly effective; effect of inhibition of ERK activation (PD98059) on Nrf2 and HO-1 induction (Nrf2 and HO-1; PD98059 pretreatment): reduced
5 | O=c1cc(-c2ccc(O)c(O)c2)oc2cc(O)ccc12 [7,3′,4′-THF, 3′,4′,7-trihydroxyflavone] | 0.89 ± 0.04 | 5 | > 80 | 10 | 50 to 60 |  |  | effect of higher levels of BSO on protection (HT22 cells): reduced protection; protection from oxidative stress-induced death (HT22 cells; HT22 cells, glutamate): equal to or more effective than fisetin; GSH levels in the presence of oxidative stress (GSH; 5 mM glutamate): could not maintain GSH levels; basal levels of GSH (GSH; flavonoid alone): raised the basal levels of GSH
6 | O=c1cc(-c2ccc(O)c(O)c2)oc2cc(O)cc(O)c12 [Iuteolin, 5,7,3′,4′-tetrahydroxyflavone] |  |  |  |  |  | 10 | 50 | 
7 | N#CC(=C(/N)Sc1ccccc1N)/C(C#N)=C(\N)Sc1ccccc1N [U0126, reference compound] |  |  |  |  |  |  |  | CREB phosphoprotein signal normalized to total protein (CREB): 0.71±0.31; p42 phosphoprotein signal normalized to total protein (ERK2 (p42)): 0.30±0.05; p44 phosphoprotein signal normalized to total protein (ERK1 (p44)): 0.13±0.06
8 | COc1cc(-c2oc3cc(O)cc(O)c3c(=O)c2O)ccc1O [isorhamnetin, 3′-methoxy-3,5,7,4′-tetrahydroxyflavone] |  |  |  |  |  | 10 | 50 | 
9 | O=c1c(O)c(-c2cc(O)c(O)c(O)c2)oc2cc(O)cc(O)c12 [myricetin] |  |  |  |  |  |  |  | differentiation promoting activity (PC12 cells [3]; earlier flavonoid comparison): completely ineffective
10 | O=c1c(O)c(-c2ccc(O)c(O)c2)oc2cc(O)cc(O)c12 [quercetin, 3,5,7,3′,4′-pentahydroxyflavone] |  |  |  |  |  | 10 | 50 | 
